According to patent publication US20050042213A1, “Methods and pharmaceutical compositions for modulating heparanase activation and uses thereof” (InSight Biopharmaceuticals Ltd., priority 2003, published 2005):
pIC50: −log10 of the molar value. The star is where a group is joined. AMC = Cc1cc(=O)oc2cc(N*)ccc12; Cbz = O=C(OCc1ccccc1)*

Experiments:
[1] = system: Cathepsin B; settings: value reported in the literature (M. Murata et al., FEBS Lett., 280, 307, 1991); cited from earlier work
[2] = system: 293 cell extract; test: Cleavage of Z-Pro-Lys-Lys-Glu-AMC (Peptide 1) by 293 cell extract and its inhibition by protease inhibitors; assay type: biochemical, human; design: % Inhibition: concentration or dose not given beside the values
Method: Following a 20 minutes incubation at 37° C., fluorescence released due to proteolytic activity was determined using a BMG POLARstar™ Galaxy fluorometer: excitation at 390 nm and emission at 460 nm.

[3] = target: T1, pro-heparanase (H60) (Homo sapiens, UniProt Q9Y251, K307R); test: Processing and activation of pro-heparanase in vitro with cathepsin B and D in the presence of heparin (Western blot, DMB assay); assay type: biochemical; settings: cathepsin B and/or cathepsin D, heparin-sepharose
T1 sequence (Q9Y251 36-543 K307R): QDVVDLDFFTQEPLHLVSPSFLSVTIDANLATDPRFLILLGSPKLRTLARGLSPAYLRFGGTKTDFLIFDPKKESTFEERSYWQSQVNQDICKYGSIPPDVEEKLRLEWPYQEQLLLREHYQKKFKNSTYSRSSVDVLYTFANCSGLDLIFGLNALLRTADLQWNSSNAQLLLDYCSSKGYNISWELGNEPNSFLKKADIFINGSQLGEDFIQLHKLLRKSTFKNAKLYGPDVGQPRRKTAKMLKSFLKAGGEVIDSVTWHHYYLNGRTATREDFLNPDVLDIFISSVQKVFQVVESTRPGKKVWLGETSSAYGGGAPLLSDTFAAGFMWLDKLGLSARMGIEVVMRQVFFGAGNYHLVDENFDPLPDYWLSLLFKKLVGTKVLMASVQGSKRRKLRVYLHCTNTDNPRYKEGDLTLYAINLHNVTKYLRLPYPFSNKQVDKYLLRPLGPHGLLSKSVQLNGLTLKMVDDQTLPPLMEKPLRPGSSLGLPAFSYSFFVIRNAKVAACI
Method: (§1) Western blot analysis—Western blot analysis was performed using rabbit anti-heparanase polyclonal antibodies as described in U.S. Pat. Nos. 6,177,545; 6,531,129; and 6,562,950.
Following a 17 hours incubation at room temperature, reaction products were filtered to a new plate and quantified using di-methyl-methylene-blue, as described in U.S. Pat. No. 6,190,875.
Assay mixtures contained heparin (Sigma, H3393) or heparinomimetic molecules ethane-1,2-disulfonic acid (Sigma, E2269) and heparin disaccharide IVA (Sigma, H0895) for western blot analysis or heparin sepharose beads for activation assays, in 200 mM acetate buffer, pH 5.5, 4 mM EDTA and 8 mM DTT, with either Cathepsin B, Cathepsin D or both. Following a 17 hours of incubation at room temperature, reaction products were examined by western blot analysis or filtered to a new plate and quantified using di-methyl-methylene-blue, as described in U.S. Pat. No. 6,190,875 for activation assay.

[4] = target: T1, pro-heparanase (H60); test: Pro-heparanase activation in a cell-based assay (293 cells, DMB assay)
[5] = target: T2, VEGF (Homo sapiens, UniProt P15692); test: Elisa assay for binding of VEGF to heparin; settings: inhibition of VEGF binding to heparin
T2 sequence (P15692 27-191 isoform P15692-4): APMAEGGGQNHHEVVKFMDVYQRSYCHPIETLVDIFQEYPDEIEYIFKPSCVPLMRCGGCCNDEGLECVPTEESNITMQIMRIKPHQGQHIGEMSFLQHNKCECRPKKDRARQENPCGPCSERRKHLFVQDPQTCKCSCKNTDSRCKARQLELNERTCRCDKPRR
Method: Elisa assay for determination of binding of VEGF to heparin—96 well microplates were coated overnight with Heparin-albumin (Lizard) and blocked with 1% BSA in PBS with 0.05% Tween and 0.01% thimerosal for 2 hrs. VEGF was added to the plates at a concentration of 2 ng/ml and incubated for 45 min. at 23-25° C. The amount of VEGF bound to heparin was detected using anti-VEGF monoclonal antibody (Sigma Cat. # V4758) at a concentration of 0.26 μg/ml and secondary antibodies Sheep anti-mouse IgG linked to horseradish peroxidase (1:2000). TMB (Pierce Cat. #34021) was used as a substrate for peroxidase.
(§2) The plates were read at 450 nm with a reference wavelength of 630 nm using a VERSAmax plate reader. […] Percent inhibition was calculated as compared with the control reactions pre-incubated with 1% DMSO only.

[6] = target: antithrombin (Homo sapiens, UniProt P01008); test: Elisa assay for binding of antithrombin to heparin; settings: inhibition of antithrombin binding to heparin; NI = no inhibition; read-out: IC50 ATIII
Method: Elisa assay for determination of binding of antithrombin to heparin—96 well microplates were coated overnight with Heparin-albumin (Lizard) and blocked with I % BSA in PBS with 0.05% Tween and 0.01% thimerosal for 2 hrs. […] was added to the plates at a concentration of 0.5 μg/ml and incubated overnight at 4° C. The amount of antithrombin bound to heparin was detected using an anti-antithrombin monoclonal antibody (Sigma Cat. # A5816) diluted to 1:200, and secondary antibodies (anti-mouse anti-Fc? conjugated to horseradish peroxidase, Jackson cat. # 115-035-008, 1:100). TMB (Pierce Cat. #34021) was used as a substrate for peroxidase.
The plates were read at 450 nm with a reference wavelength of 630 nm using a VERSAmax plate reader. […] Percent inhibition was calculated as compared to the control reactions pre-incubated with 1% DMSO only.

[7] = target: T3, heparanase (H53) (Homo sapiens, UniProt Q9Y251, K307R); test: Heparanase activity inhibition (H53), DMB assay; assay type: biochemical; settings: heparanase activity inhibition (H53); NI = no inhibition
T3 sequence (Q9Y251 158-543 K307R limits assumed): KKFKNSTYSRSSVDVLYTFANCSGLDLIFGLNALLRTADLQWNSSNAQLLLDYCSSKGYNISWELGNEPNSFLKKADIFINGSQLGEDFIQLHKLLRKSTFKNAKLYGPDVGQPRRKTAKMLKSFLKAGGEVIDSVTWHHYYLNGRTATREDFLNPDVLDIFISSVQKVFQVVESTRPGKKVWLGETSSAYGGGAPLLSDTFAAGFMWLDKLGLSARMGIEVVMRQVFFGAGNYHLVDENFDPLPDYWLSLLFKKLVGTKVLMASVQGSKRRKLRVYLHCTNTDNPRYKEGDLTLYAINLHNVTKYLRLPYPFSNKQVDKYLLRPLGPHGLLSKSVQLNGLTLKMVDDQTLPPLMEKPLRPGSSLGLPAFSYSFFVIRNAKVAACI
T3 sequence (Q9Y251 36-109 limits assumed): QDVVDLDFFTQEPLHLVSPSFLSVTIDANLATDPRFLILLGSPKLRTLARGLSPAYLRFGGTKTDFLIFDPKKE
Method: At the end of the incubation, the cells were lysed by three consecutive cycles of freezing and thawing in a −80° C. Freezer and a 37° C. shaker. Formation of active heparanase was detected by determination of heparanase activity in DMB assay as described in patent application U.S. Pat. No. 6,190,875B.

[8] = Heparin binding of compounds (heparin sepharose CL-6B beads); settings: compound at 5 uM
Method: Heparin binding—5 μM of the selected compound was prepared in a solution of PBS pH 7.2 with 0.05% Tween and 5% DMSO. […] Excess water was discarded by filtration using a Multiscreen vacuum manifold (Millipore, Cat No. MAVM 096 00). 200 μl of each compound tested was transferred to three wells of the filter plate—one empty well, one with sepharose CL-6B and one with heparin sepharose CL-6B. Plates were rotated for 2 hrs at 37° C. followed by filtration to a new 96 well clear plate, using a Multiscreen vacuum manifold. The absorbance spectrum of the filtrate in each well was determined using a VERSAmax plate reader (Molecular devices). Percent of heparin binding was calculated from the binding to heparin sepharose CL-6B as compared to the binding of the compound to the control sepharose CL-6B beads.

[9] = target: T4, pro-heparanase transiently expressed in 293 cells (Homo sapiens, UniProt Q9Y251, K307R); test: Pro-heparanase processing in transiently transfected 293 cells (Western blot); assay type: cell-based
T4 sequence (Q9Y251 36-543 K307R): T1 sequence (Q9Y251 36-543 K307R)
Method: as §1
Transient transfections—293 cells (200,000) were plated onto a 6 well tissue culture plate. 24 hrs later, the cells were transfected with 1 μg pSI (Promega) hpa plasmid (U.S. Pat. No. 6,475,763) in 3 μl Fugene reagent that was pre-incubated for 15 min in 100 μl medium without serum. Cells were treated with inhibitors 4 and 17 hrs following transfection.

[10] = target: T5, β-FGF (Homo sapiens, UniProt P09038); test: Elisa assay for binding of β-FGF to heparin; settings: inhibition of β-FGF binding to heparin
T5 construct: purchased Sigma F0291
Method: Elisa assay for determination of binding of β-FGF to heparin—96 well microplates were coated overnight with Heparin-albumin (Lizard) and blocked with 1% BSA in PBS with 0.05% Tween and 0.01% thimerosal for 2 hrs. β-FGF was added to the plates at a concentration of 0.8 ng/ml and incubated for 45 min at 23-25° C. The amount of β-FGF bound to heparin was detected using anti-FGF monoclonal antibody (Sigma Cat. # F6162) at a concentration of 2.5 ng/ml and secondary antibodies Sheep anti-mouse IgG linked to horseradish peroxidase (1:3000). TMB (Pierce Cat. #34021) was used as a substrate for peroxidase.
as §2

[11] = target: T6, Elastase, human neutrophil (Homo sapiens, UniProt P08246); test: Determination of elastase activity; assay type: biochemical; settings: Table 13
T6 construct: Elastase, human neutrophil (Calbiochem cat.# 324681); purchased Calbiochem 324681; host or cells: human neutrophils
T6 sequence (P08246 30-267): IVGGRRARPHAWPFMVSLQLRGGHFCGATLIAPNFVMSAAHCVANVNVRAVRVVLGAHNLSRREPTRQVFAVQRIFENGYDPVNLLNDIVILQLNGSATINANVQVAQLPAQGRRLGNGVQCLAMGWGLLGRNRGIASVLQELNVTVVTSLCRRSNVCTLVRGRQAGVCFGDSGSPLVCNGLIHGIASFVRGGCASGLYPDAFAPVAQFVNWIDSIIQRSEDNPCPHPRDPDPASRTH

[12] = system: pro-heparanase (H60); test: Processing and activation of pro-heparanase in vitro with cathepsin G; assay type: biochemical, human; settings: in the presence of heparin
Method: The assays were performed in assay mixtures containing heparin for western blot analysis or heparin sepharose beads for activation assays, in PBS, 365 mM NaCl, with 1 μ/ml cathepsin G (Sigma, C4428). Following a 17 hours incubation at room temperature, reaction products were examined in western blot analysis or filtered to a new plate and quantified using di-methyl-methylene-blue, as described in U.S. Pat. No. 6,190,875 for activation assay.

[13] = target: T7, cathepsin G (Homo sapiens, UniProt P08311); test: Cathepsin G activity inhibition; assay type: biochemical; settings: data not shown
T7 sequence (P08311 21-244): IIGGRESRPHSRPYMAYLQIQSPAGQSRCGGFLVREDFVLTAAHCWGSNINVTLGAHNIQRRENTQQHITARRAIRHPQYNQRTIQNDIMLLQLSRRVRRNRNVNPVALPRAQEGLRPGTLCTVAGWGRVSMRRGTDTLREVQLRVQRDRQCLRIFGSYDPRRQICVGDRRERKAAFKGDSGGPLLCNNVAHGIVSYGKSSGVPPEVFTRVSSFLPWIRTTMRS

[14] = target: Cathepsin B (Homo sapiens, UniProt P07858); test: Proteolytic activity assay: cleavage of fluorogenic peptides by cathepsin B; assay type: biochemical; settings: substrate cleaved by Cathepsin B
Method: (§3) Assay was done in a reaction mixture containing 200 mM acetate buffer, pH 5.5, 4 mM EDTA and 8 mM DTT. Following a 20 minutes incubation at 37° C., fluorescence released due to proteolytic activity was determined using a BMG POLARstar™ Galaxy fluorometer: excitation at 390 nm and emission at 460 nm.

[15] = target: T8, Cathepsin L (Homo sapiens, UniProt P07711); test: Proteolytic activity assay: cleavage of fluorogenic peptides by cathepsin L; assay type: biochemical; settings: substrate cleaved by Cathepsin L
T8 construct: purchased Calbiochem
Method: as §3

T5 sequence (P09038 143-288): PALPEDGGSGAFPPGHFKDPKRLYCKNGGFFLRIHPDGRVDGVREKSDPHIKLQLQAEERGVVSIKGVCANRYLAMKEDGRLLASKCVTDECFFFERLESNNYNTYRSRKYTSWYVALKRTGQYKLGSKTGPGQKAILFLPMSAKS
T8 sequence (P07711 114-333, species assumed): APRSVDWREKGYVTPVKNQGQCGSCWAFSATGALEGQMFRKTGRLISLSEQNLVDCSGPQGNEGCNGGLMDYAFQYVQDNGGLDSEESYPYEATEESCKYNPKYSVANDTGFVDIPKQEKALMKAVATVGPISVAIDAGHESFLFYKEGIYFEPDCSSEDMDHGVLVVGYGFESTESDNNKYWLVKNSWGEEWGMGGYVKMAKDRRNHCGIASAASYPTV
antithrombin, sequence (P01008 33-464): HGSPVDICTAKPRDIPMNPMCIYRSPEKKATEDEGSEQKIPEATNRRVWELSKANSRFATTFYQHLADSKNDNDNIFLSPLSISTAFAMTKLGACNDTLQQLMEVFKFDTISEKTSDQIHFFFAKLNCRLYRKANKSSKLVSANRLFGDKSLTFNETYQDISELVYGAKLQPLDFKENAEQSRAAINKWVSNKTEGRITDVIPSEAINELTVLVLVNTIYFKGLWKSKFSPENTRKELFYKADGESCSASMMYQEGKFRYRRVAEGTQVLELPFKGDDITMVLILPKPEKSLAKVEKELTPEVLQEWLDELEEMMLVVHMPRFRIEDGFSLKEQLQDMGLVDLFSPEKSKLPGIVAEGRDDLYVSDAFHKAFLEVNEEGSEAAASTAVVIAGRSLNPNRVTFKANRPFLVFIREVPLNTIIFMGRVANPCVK

## CCCNC(=O)[C@H]1O[C@@H]1C(=O)N[C@H](C(=O)N1CCC[C@H]1C(=O)O)[C@@H](C)CC [CA-074]
[1]
  pIC50: […]
[2]; inhibition of Z-Pro-Lys-Lys-Glu-AMC cleavage by 293 cell extract
  % Inhibition: 96%
[3]
  activation of pro-heparanase in vitro (heparanase activity): inhibited this activation

## Cc1cc(N(C)C)cc2[s+]c3cc(N(C)C)cc(C)c3nc12 [Compound 112]
[4]; inhibition of pro-heparanase activation, Table 11, heparin-binding compounds
  pIC50: 6.24
[5]
  pIC50: 5.62
[6]
  pIC50: 4.74
[7]
  pIC50: 4.70
[8]
  Binding to heparin (5 uM): 70%
[9]
  pro-heparanase expression: did not affect pro-heparanase expression
  pro-heparanase processing: completely inhibited pro-heparanase processing
[10]
  pIC50: 5.89

## O=C(Nc1ccc(Oc2cccc(Oc3ccc(NC(=O)c4ccncc4)cc3)c2)cc1)c1ccncc1 [Compound 128]
[4]; inhibition of pro-heparanase (H60) activation, Table 13 serine protease inhibitors
  pIC50: 6.30
[11]
  pIC50: 4.89
[12]
  inhibition of pro-heparanase activation in-vitro by cathepsin G: inhibit pro-heparanase activation in-vitro by cathepsin G
[3]
  activation of pro-heparanase in vitro (heparanase activity): not by cathepsin B
[13]
  inhibition of the activity of cathepsin G: inhibit the activity of cathepsin G

## Z-Pro-Lys-Lys-Glu-AMC (Cbz-PKKE-{AMC}; SMILES Cc1cc(=O)oc2cc(NC(=O)[C@H](CCC(=O)O)NC(=O)[C@H](CCCCN)NC(=O)[C@H](CCCCN)NC(=O)[C@@H]3CCCN3C(=O)OCc3ccccc3)ccc12) [Peptide 1]
[14]
  Activity (δfluorescence): 8926
[2]; different pHs, pH range 4.5-7.5
  cleavage by 293 cell extract: highest at pH 5.5-6.5
[15]
  Activity (δfluorescence): 0
